# Laboratory results published in PMC6805867, “Amphiphilic Triazine Polymer Derivatives as Antibacterial And Anti-atopic Agents in Mice Model” (Scientific Reports, 2019).
# What was measured:
# [1] = test system: Bacillus subtilis (KCTC 3068); assay: Antimicrobial activity, broth microdilution MIC; assay type: cell-based; details: 2 × 10^6 CFU/mL in 1% peptone, 37 °C, 18–22 h, 100% inhibition of growth, performed three times
# Procedure: (§1) The bacterial strains employed in the experiment were Escherichia coli (KCTC 1682), Pseudomonas aeruginosa (KCTC 1637), Bacillus subtilis (KCTC 3068), Staphylococcus aureus (KCTC 1621), three methicillin-resistant Staphylococcus aureus (CCARM 3089, 3090 and 3095), two multidrug-resistant Pseudomonas aeruginosa (CCARM 2095 and 2109) and vancomycin-resistant Enterococcus faecium (ATCC 51559). The antimicrobial activities of polymers were determined by the broth microdilution method, and the procedures were used as previously reported. Briefly, bacteria grown to mid-logarithmic phase in LB broth were diluted to 2 × 10^6 CFU/mL in 1% peptone and added to serial two-fold dilutions of different polymers ranging from 1 to 64 μg/mL. The plates were incubated in a shaking incubator at 37 °C for 18–22 h. The minimum inhibitory concentration (MIC) was determined by confirming the absence of bacterial growth both visually and spectrophotometrically by OD600 readings taken by a microplate ELISA reader (Molecular Devices, Sunnyvale, CA, USA). All measurements were performed three times.
# [2] = test system: Escherichia coli (KCTC 1682); assay: Antimicrobial activity, broth microdilution MIC; assay type: cell-based; details: 2 × 10^6 CFU/mL in 1% peptone, 37 °C, 18–22 h, 100% inhibition of growth, performed three times
# Procedure: as §1
# [3] = test system: Pseudomonas aeruginosa (KCTC 1637); assay: Antimicrobial activity, broth microdilution MIC; assay type: cell-based; details: 2 × 10^6 CFU/mL in 1% peptone, 37 °C, 18–22 h, 100% inhibition of growth, performed three times
# Procedure: as §1
# [4] = test system: Staphylococcus aureus (KCTC 1621); assay: Antimicrobial activity, broth microdilution MIC; assay type: cell-based; details: 2 × 10^6 CFU/mL in 1% peptone, 37 °C, 18–22 h, 100% inhibition of growth, performed three times
# Procedure: as §1
# [5] = test system: AD-like skin lesion in BALB/c mice; assay: DNCB-induced AD-like skin lesion model, dermatitis score; assay type: in vivo; details: 200 μg/mL in 20 μL PBS on dorsal skin once daily for 18 days, versus AD mice, n = 8
# Procedure: (§2) As described in our previous article, the 7-week-old female BALB/c mice were divided into seven groups (n = 8 per group): Control (Con) group, TZP3 200 μg/mL (TZP3) group, and TZP5 200 μg/mL (TZP5) group, DNCB-sensitized only (AD) group, DNCB-sensitized + TZP3 200 μg/mL (AD + TZP3) group, DNCB-sensitized + TZP5 200 μg/mL (AD + TZP5) group, DNCB-sensitized + Dermatop (Sanofi, Korea) 0.25% (AD + Dermatop) group. Dermatop was used as a positive control treatment. For the first induction of AD in the BALB/c mice, the backs of the mice were shaved and challenged with 200 μL of 1% 2,4-dinitrochlorobenzene(DNCB) in acetone/olive oil (3:1) one time (day−4). After 4 days from the induction, 0.5% DNCB was painted onto the backs of the mice every two days (day 2, 4, 6, 8, 10, 12, 14, 16 and 18). Concentrations of 200 μg/mL TZP3 or TZP5 in 20 μL of PBS were applied to the dorsal skin once daily for 18 days.
# The severity of dermatitis on the dorsal skin lesions was evaluated three times per week, according to a slight modification of the criteria described previously. The development of (1) erythema/hemorrhage, (2) scarring/dryness, (3) edema, and (4) excoriation/erosion was scored as 0 (none), 1 (mild), 2 (moderate), or 3 (severe). The sum of the individual scores was defined as the dermatitis score.
# [6] = test system: inflammatory cytokine expression in dorsal skin tissue; assay: DNCB-induced AD model, cytokine mRNA expression by real-time PCR; assay type: in vivo, BALB/c mice; details: AD-like skin lesions, n = 8
# Procedure: as §2
# For the reverse transcription (RT) - polymerase chain reaction (PCR), the total cellular RNA was isolated from the dorsal skin tissue of each treatment group using TRIzol according to the manufacturer’s protocol. The first-strand complementary DNA (cDNA) was synthesized using Superscript II reverse transcriptase (Invitrogen). The conditions for RT-PCR were similar ones that have been previously described in related studies. Quantitative real-time PCR was carried out using a Thermal Cycler Dice TP850 (Takarabio Inc., Shiga, Japan) according to the manufacturer’s protocol. Briefly, 2 μL of cDNA (100 ng), 1 μL of sense and antisense primer solution (0.4 µM), 12.5 μL of SYBR Premix Ex Taq (Takarabio Inc.), and 9.5 μL of dH2O were mixed to obtain a final 25-μL reaction mixture in each reaction tube. The amplification conditions were as follows: 10 s at 95 °C, 40 cycles of 5 s at 95 °C and 30 s at 60 °C, 15 s at 95 °C, 30 s at 60 °C, and 15 s at 95 °C. The mRNA levels of the target genes relative to that of GAPDH were normalized as follows: relative mRNA expression = 2^-(ΔCt of target gene−ΔCt of GAPDH), where Ct is the threshold cycle value. In each sample, the expression level of the analyzed gene was normalized to that of GAPDH and presented as a relative mRNA level.
# [7] = test system: β-hexosaminidase release from RBL-2H3 cells; assay: β-hexosaminidase release assay; assay type: cell-based, rat; details: 500 μg/mL, 12 h treatment, A23187 1 μM 30 min, dose-dependent
# Procedure: The β-hexosaminidase assay was performed as described previously with some modifications. Cells were treated with different concentrations of samples for 12 h. The treated cells were washed two times with PBS and stimulated with calcium ionophore A23187 (1 μM, final concentration) at 37 °C for 30 min. Aliquots (50 μL) of the supernatants were incubated with 50 μL of 1 mM 4-nitrophenyl-N-acetyl-β-D-glucosaminide in 0.1 M sodium citrate (pH 4.5) at 37 °C for 1 h. At the end of incubation, 250 μL of carbonate buffer containing 0.1 M Na2CO3 and 0.1 M NaHCO3 (pH 10) was added, and then the absorbance due to the formation of p-nitrophenol was measured at 410 nm. The supernatant from the non-stimulated cells was used as a blank while the supernatant from the stimulated cells with calcium ionophore A23187 alone was used as a control. The β-hexosaminidase release levels were calculated as a percentage compared to that of control: β-hexosaminidase release (%) = (absorbance of tested sample− absorbance of blank)/(absorbance of control-absorbance of blank) × 100.
# Effect of TZP3 and TZP5 on TNF-α suppression
# Therefore, the dimer TZP3 and trimer TZP5 were probed for their potential for inhibiting the TNF-α induced from RBL-2H3 cells in in vitro method.
# Calcium ionophore A23187 and PMA induced the TNF-α secretion in RBL-2H3 cells, on the contrary, treatment of which with TZP3 and TZP5
# Figure S1. […]
SMILES,MIC Bacillus subtilis (KCTC 3068) [1],MIC Escherichia coli (KCTC 1682) [2],MIC Pseudomonas aeruginosa (KCTC 1637) [3],MIC Staphylococcus aureus (KCTC 1621) [4],dermatitis score [5],IL-4 suppression (mRNA expression) [6],inhibition of IFN-γ mRNA expression [6],inhibition of IL-1β mRNA expression [6],inhibition of IL-13 mRNA expression [6],inhibition of IL-17 mRNA expression [6],inhibition of TNF-α mRNA expression [6],suppression of IL-6 mRNA expression [6],suppression of IL-10 mRNA expression [6],inhibition of β-hexosaminidase release [7]
NCCCN(CCCN)c1nc(Cl)nc(NCCNc2nc(NCCNc3nc(N)nc(NCCC(c4ccccc4)c4ccccc4)n3)nc(N(CCCN)CCCN)n2)n1 [TZP5],2 [1.5] μg/mL,4 [3] μg/mL,4 [3] μg/mL,4 [3] μg/mL,significantly decreased score,around 35%,around 60%,> 75%,> 75%,more than 85%,~65%,~50%,almost similar potency with the dermatop,maximum inhibitory effects
NCCCN(CCCN)c1nc(N)nc(NCCNc2nc(Cl)nc(N(Cc3ccccc3)Cc3ccccc3)n2)n1 [TZP3],2 [3.4] μg/mL,4 [6.8] μg/mL,8 [13.5] μg/mL,4 [6.8] μg/mL,significantly decreased score,around 35%,around 60%,more than 70%,more than 70%,60%,approximately 55%,around 60%,around 35%,maximum inhibitory effects
